Test [1] in a line: DPPH spectrophotometric assay (radical scavenging). The settings on record: mean ± SEM, n = 3; 30 min, 37 °C, 515 nm. The protocol: This was performed by following a previously reported conventional method, with some modifications. Here, 0.5 mL of 0.1Mm DPPH radical in methanol was added to 0.5 mL of serially diluted CS-isolated compounds and L-ascorbic acid at 100.00, 50.00, 25.00, 12.50 and 6.25 µg/mL concentration range in triplicate. The reaction mixture was incubated in the dark at 37 °C for 30 min. The absorbance was measured at 515 nm on a microplate reader. The percentage inhibition of the radical was calculated thus: % DPPH inhibition=(ABScontrol−ABSsample/ABScontrol)×100 where ABSsample = Absorbance of test sample, while ABScontrol = Absorbance of negative control (2% DMSO).
(In general: The DPPH test is a chemical assay of radical scavenging.)

Test [2] in a line: Nitric oxide (NO) inhibition assay (sodium nitroprusside/Griess). The settings on record: mean ± SEM, n = 3; 540 nm. The protocol: The inhibitory effect of the isolated compounds against the NO radical was investigated using the method described by Jimoh et al.. The compounds were prepared in varying concentrations from 100.00–6.25 µg/mL. They were added to 0.2 Mm (2 mL) of sodium nitroprusside in triplicates.
(Nitrite, measured by Griess reagent, commonly stands in for NO production.)

A short description of test [3]: Ferric reducing antioxidant power (FRAP) assay. The note with it: ascorbic acid equivalent; mean ± SEM, n = 3; 700 nm. The protocol: The reducing antioxidant capacity of each isolated compound was evaluated according to the method of Kumar and Pandey, with some modifications. The compounds were dissolved in 2% DMSO and added to the mixture containing 0.25 mL of phosphate buffer (0.2 M; pH 6.6) and 0.25 mL of potassium ferricyanide [K3Fe(CN)6] (1% w/v). Standard compounds used were L (+)-Ascorbic acid. The resulting mixture was incubated at 50 °C for 20 min, followed by the addition of 0.25 mL of CCl3COOH (10% w/v) and then centrifuged at 3000 rpm for 10 min. The upper layer of the solution was mixed with 1 mL of 2% DMSO and the same amount and 0.5 mL of FeCl3 (0.1%, w/v). The experiment was conducted in triplicate, and absorbance was measured at 700 nm on a microplate reader against a blank sample of only phosphate buffer. Thus, the ferric reducing power of the isolated compounds at 100.00, 50.00, 25.00, 12.50 and 6.25 µg/mL concentration in methanol were determined as ascorbic acid equivalent (AAE) from the calibration curve of the positive control (L-ascorbic acid).

The subject of another test is egg albumin. Briefly: In vitro anti-inflammatory test: egg albumin denaturation (EAD) assay. The class given is biochemical, chicken. On the procedure: The test was carried out using the egg albumin denaturation assay method reported by Chatterjee et al.. […] The mixture was incubated at 37 °C for 15 min away from direct light and thereafter boiled at 70 °C for 5 min in a thermostatic water bath. The resulting mixture was cooled, and the absorbance was measured at 655 nm on a microplate reader.

Test [4] addresses T1, porcine pancreatic elastase (PPE) (Sus scrofa, UniProt P00772).
T1 construct: purchased Sigma
Put plainly: Anti-elastase assay (release of p-nitroaniline from N-succinyl-ala-ala-ala-p-nitroanilide). It counts as biochemical. The note with it: n = 3; text says elastase in HaCaT cells, method uses PPE; read-out: Anti-Elastase Activity (IC50 ± SD) (converted). On the procedure:
All reagents, solvents, silica gel for TLC and silica gel for column chromatography were purchased from Sigma-Aldrich (Pty) Ltd. (Johannesburg, South Africa) and Merck (Pty) Ltd. (Johannesburg, South Africa) through a licenced local supplier, Shalom Laboratories and Supplies, South Africa. Antioxidant absorbance were measured on a 680-Bio-Rad Microplate Reader (Serial Number 14966, Irvine, CA, USA), while the anti-elastase activity was monitored on a Perkin Elmer VICTOR Nivo microplate reader ([…]). Isolated compounds were analyzed with a 600 MHz Bruker Biospin GmbH spectrometer (Bruker, Rheinstetten, Germany) and a 400 MHz VARIAN NMR spectrometer (Agilent Technologies Inc., Santa Clara, CA, USA). Chemical shift (δ) was recorded in part per million (ppm). The spectrum range was set at 0–14 ppm for 1H NMR, while that of ^13C NMR was set at 0–220 ppm. Tetramethyl silane was used as the internal standard and compounds were read in deuterated chloroform and benzene, as well as benzene-d6 in trifluorotoluene (TFT). High-resolution mass spectrometry (HRMS) was performed with a Waters API Q-TOF Ultima spectrometer (Waters Corporation, Manchester, UK) situated in Stellenbosch University, Stellenbosch, South Africa. […]
The ability of each isolated compound to inhibit porcine pancreatic elastase (PPE) (Sigma) was determined by measuring the release of p-nitroaniline from N-succinyl-ala-ala-ala-p-nitroanilide spectrophotometrically at 405nm according to the method of Bieth et al. and modified according to the method of Fibrich et al.. The reaction mixture contained 100mM Tris buffer (pH 8.0), 0.5M HCl; the test sample was serially diluted in DMSO to yield seven concentrations ([…]) to which PPE ([…]) was added and incubated for 15 min, followed by the addition of N-succinyl-ala-ala-ala-p-nitroanilide (4mM). The change in the absorbance of the reaction mixture was measured for 15 min, from which the rate was obtained. One unit of elastastolytic activity is defined as the release of 1 µM of p-nitroaniline/min. Ursolic acid was included as the positive drug control, as well as a vehicle control containing 2% DMSO and two negative controls (one in which no enzyme was added and the other in which no substrate was added). An IC50, or concentration at which 50% of the enzyme activity is inhibited was calculated using GraphPad Prism 4 (GraphPad Software, San Diego, CA, USA).

“And” between values parts separate entries of the source, which are not always exact repeats. Equal entries are not always repeated. Marks after values point to notes of the source that are not given here. Some results are limits rather than exact numbers.

The values that follow come from publication PMC10141076, “Steroids and Fatty Acid Esters from Cyperus sexangularis Leaf and Their Antioxidant, Anti-Inflammatory and Anti-Elastase Properties” (Molecules, 2023).

T1 sequence (P00772 27-266): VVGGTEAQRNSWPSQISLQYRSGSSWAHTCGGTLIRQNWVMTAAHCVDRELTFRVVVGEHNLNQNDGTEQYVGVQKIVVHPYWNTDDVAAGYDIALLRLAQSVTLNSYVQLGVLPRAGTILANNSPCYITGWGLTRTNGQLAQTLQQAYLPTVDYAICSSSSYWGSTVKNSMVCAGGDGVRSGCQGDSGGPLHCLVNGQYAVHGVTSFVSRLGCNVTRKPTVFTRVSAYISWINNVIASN

As for `O=C1O[C@H]([C@@H](O)CO)C(O)=C1O` [ASC, L-ascorbic acid, reference compound], in test [1], the “DPPH (IC50 ± SEM)” value is recorded as 8.92 ± 1.26 ^a µg/mL. For the same compound, the “NO (IC50 ± SEM)” value in test [2] is 21.89 ± 1.32 ^a µg/mL.
As for `CC[C@H](C=C[C@@H](C)[C@H]1CC[C@H]2[C@@H]3CC=C4CC(O)CC[C@]4(C)[C@H]3CC[C@]12C)C(C)C` (stereo partly shown) [Compound 1, stigmasta-5,22-dien-3-ol], in test [1], the “DPPH (IC50 ± SEM)” value is 38.18 ± 2.30 ^bc µg/mL. The “NO (IC50 ± SEM)” value in test [2] is 68.56 ± 4.03 ^bc µg/mL. For the same compound, the FRAP in test [3] was 303.58 ± 10.33 µgAAE/mg and 303.58 ± 10.33 ^c µgAAE/mg. Also, the “inhibition of egg albumin denaturation” value was 51.03 ± 10.36% in the test with egg albumin (at 6.25 µg/mL (lowest concentration)); 50% in the test on egg albumin (at 6.25 µg/mL (lowest concentration), listed as stigmasterol); “up to 70%” in the test with egg albumin (at 25 µg/mL (median concentration)). In addition, the IC50 (commonly the midpoint of a concentration-inhibition curve) in test [4] was more than 121 µM.
As to `C=CC(C)C1CCC2C1CCC1C3CCCCC3CCC12` (stereo not shown) [Compound 2, 17-(1-methyl-allyl)-hexadecahydro-cyclopenta[a] phenanthrene], the “DPPH (IC50 ± SEM)” value in test [1] is on record as 57.63 ± 1.62 ^e µg/mL. In test [2], the “NO (IC50 ± SEM)” value is listed as 105.73 ± 7.48 ^d µg/mL. Besides, in test [3], the FRAP was 196.21 ± 13.79 ^a µgAAE/mg. Also, the “inhibition of egg albumin denaturation, rank in words” value in the test with egg albumin (across all concentrations (100–6.25 µg/mL), p < 0.05) is “least active among all the compounds tested”. In test [4], the IC50 was more than 349 µM.
With `CC[C@H](CC[C@@H](C)[C@H]1CC[C@H]2[C@@H]3CC=C4C[C@@H](O)CC[C@]4(C)[C@H]3CC[C@]12C)C(C)C` [Compound 3, β-sitosterol], the IC50 in test [4] is more than 121 µM.
For `CCCCCCCCCCCC(=O)O` [Compound 4, dodecanoic acid], the “DPPH (IC50 ± SEM)” value in test [1] is on record as 35.99 ± 2.13 ^b µg/mL. The “NO (IC50 ± SEM)” value in test [2] was 65.04 ± 3.20 ^b µg/mL. Moreover, the FRAP in test [3] is on record as 245.94 ± 22.81 ^b µgAAE/mg. Also, the 50% inhibitory concentration (IC50) in test [4] is more than 250 µM.
On the same counts, the results for `CCCCCCCCCCCCCCCCCCC(=O)OCC` [Compound 5, ethyl nonadecanoate] are 43.82 ± 1.44 ^c µg/mL, 69.74 ± 3.06 ^bc µg/mL, 243.40 ± 19.72 ^b µgAAE/mg and not below 153 µM.
For the compound `CCCCCCCCCCCCCCCCCC(=O)OCC` [Compound 6, ethyl stearate], the “DPPH (IC50 ± SEM)” value in test [1] is listed as 49.86 ± 2.29 ^d µg/mL. Besides, in test [2], the “NO (IC50 ± SEM)” value is given as 95.99 ± 4.93 ^d µg/mL. Further, the FRAP in test [3] was 190.92 ± 11.68 ^a µgAAE/mg. In addition, the “inhibition of egg albumin denaturation, rank in words” value in the test with egg albumin (at concentrations above 6.25 µg/mL) is “least activity among the fatty acid compounds”. The concentration for half-maximal inhibition (IC50) in test [4] was not below 160 µM.
Turning to `C[C@H]1[C@H](C)CC[C@]2(C(=O)O)CC[C@]3(C)C(=CC[C@@H]4[C@@]5(C)CC[C@H](O)C(C)(C)[C@@H]5CC[C@]43C)[C@H]12` [Ursolic acid, ursolic acid, reference compound], the half-inhibitory concentration (IC50) in test [4] was 54.3 µM.
Same read-out and setting: as for `CCCCCCCCCCCCCCCCCCC(=O)OCC` [ethyl nonadecanoate], the figure is more than 153 µM.
On the same count and under the same terms, as for `CCCCCCCCCCCCCCCCCC(=O)OCC` [ethyl stearate], the figure is more than 160 µM.
